Laboratory results taken from patent US7414131B2, “Bicycloheteroarylamine compounds as ion channel ligands and uses thereof” (Renovis, Inc., priority 2003, dated 2008).
Structures can show the parent of a compound that is named as a salt.

Key:
[1] = tested on: Sprague-Dawley male rats; test: Carrageenan-induced thermal hyperalgesia, latency of paw withdrawal; format: in vivo; settings: rat, carrageenan hindpaw; 30 mg/kg dosed one hour after carrageenan; tested two hours later
Experimental: Sprague-Dawley male rats obtained from Charles River, San Diego, Calif. were purchased at 150-175 g, and held for at least one week before testing. Pain was induced by injecting 100 μl of 2% carrageenan in 0.9% saline sub-Q into the right ventral hindpaw while the animals were under isofluorane anesthesia. Animals were then dosed one hour after with a concentration of 30 mg/kg of Compound 1. Two hours later, after acclimatizing in testing chambers for 20-30 minutes, animals were tested on both hindpaws for latency of paw withdrawal using a thermal testing apparatus. 2-3 trials were conducted with 10 minutes between trials. […] The figure depicts the time in seconds until animals withdraw from thermal stimulation at baseline and two hours after administration of delivery vehicle, control compound, and the dose of 30 mg/kg of Compound 1.

[2] = biological target: hVR1 (Homo sapiens, UniProt Q8NER1); test: High throughput calcium imaging assay (Fura2, Flex Station) of VR1 antagonists; format: cell-based; settings: HEK 293 cells expressing hVR1; for % Inhibition @ 1 μM: 1 μM compound, inhibition of calcium ion influx; for IC50: concentrations 10 nM to 3.3 μM
Sequence of hVR1 (Q8NER1 whole entry): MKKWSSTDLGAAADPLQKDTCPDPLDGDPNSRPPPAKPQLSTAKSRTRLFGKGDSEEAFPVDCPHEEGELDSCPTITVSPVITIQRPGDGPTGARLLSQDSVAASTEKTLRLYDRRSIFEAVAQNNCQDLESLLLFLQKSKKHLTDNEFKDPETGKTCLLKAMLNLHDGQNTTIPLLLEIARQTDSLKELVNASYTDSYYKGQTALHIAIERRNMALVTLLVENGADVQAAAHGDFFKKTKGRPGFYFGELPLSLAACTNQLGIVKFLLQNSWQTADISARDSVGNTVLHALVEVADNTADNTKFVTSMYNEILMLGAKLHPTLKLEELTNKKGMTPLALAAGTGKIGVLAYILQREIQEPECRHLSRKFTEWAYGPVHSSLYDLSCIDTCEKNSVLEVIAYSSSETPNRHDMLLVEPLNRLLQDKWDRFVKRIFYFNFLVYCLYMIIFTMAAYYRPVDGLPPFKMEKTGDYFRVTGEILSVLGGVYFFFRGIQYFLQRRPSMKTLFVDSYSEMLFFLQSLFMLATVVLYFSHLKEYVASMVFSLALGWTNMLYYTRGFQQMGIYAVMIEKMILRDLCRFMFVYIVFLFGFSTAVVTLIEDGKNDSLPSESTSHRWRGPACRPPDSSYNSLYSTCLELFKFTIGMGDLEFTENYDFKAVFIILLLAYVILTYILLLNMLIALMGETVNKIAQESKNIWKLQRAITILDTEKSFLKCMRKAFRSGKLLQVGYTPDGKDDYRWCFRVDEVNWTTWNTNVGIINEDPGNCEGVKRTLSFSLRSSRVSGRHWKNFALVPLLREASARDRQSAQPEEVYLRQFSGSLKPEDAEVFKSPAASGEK
From the text: VR1 protein is a heat-gated cation channel that exchanges about 10 calcium ions for every sodium ion resulting in neuronal membrane depolarization and elevated intracellular calcium ion levels. Therefore the functional activity of compounds at the VR1 receptor may be determined by measuring changes in intracellular calcium levels in 293 cells expressing capsaicin-insensitive VR1 receptor variants. A dual wavelength ratiometric dye, Fura2, was used as an indicator of relative levels of calcium ions in a 96 well format using a bench top scanning fluorometer with integrated fluidics and temperature control (Flex Station, Molecular Devices).
A dual wavelength ratiometric dye, Fura2, was used as an indicator of relative levels of [Ca2+] in a 96 well format using a bench top scanning fluorometer with integrated fluidics and temperature control (Flex Station, Molecular Devices).
HEK 293 cells expressing hVR1 were grown on PDL coated 96-well black-walled plates, in the presence of a DMEM medium containing 5% Penstrep, 5% Glutamax, 200 ug/mL Hygromycin, 5 μg/mL Blasticide and 10% heat inactivated FBS. Prior to assay, the cells were loaded with 5 μg/mL Fura2 in normal saline solution at 37° C. for 40 minutes. Cells were then washed with normal saline to remove the dye.
The assay consists of two stages; a pre-treatment phase followed by a treatment phase. In the pretreatment phase, 50 μl of a compound solution was added to the cells. Immediately following, 50 μl of the test compound in the presence of agonist (a saline solution plus 10 mM citric acid bufferd to pH 5.7 with HCl) was added. Fura2 was excited at […] to indicate relative calcium concentration. Changes in wavelength measurements were made throughout the course of the experiment in 4 second intervals over a period of 3 minutes. The fluorescence ratio from the excitations at […] was recorded for analysis. Responses were measured as peak fluorescence ratio after compound-agonist addition minus baseline fluorescence ratio prior to treatment and were calculated for each concentration tested using the SoftMaxPro software. Data was expressed as percentage inhibition calculated as follows: […]
A dose response curve was then determined, from which the IC50 of each compound was calculated.

[3] = Pharmacokinetic profile after intravenous and oral administration in rats; format: in vivo, rat; settings: IV 1 mg/kg, oral 5 mg/kg; for bioavailability / Vd / Cmax / Tmax: male, Sprague-Dawley; for bioavailability / Vd: plasma; for bioavailability / Vd / Cls (L/hrKg) / T/2: rat; for Vd / Cmax / Tmax / Cls (L/hrKg) / T/2: route of this column not given; for Cmax / Tmax: rat plasma
Experimental: The pharmacokinetic profile of Compound 1 was evaluated following intravenous and oral administration in rats. Sprague-Dawley male rats obtained from Charles River, San Diego, Calif. were acclimated for 24 hours.
Compounds of this invention were formulated at a concentration of 0.5 mg/mL for IV administration at a 1 mg/kg dose and 1 mg/mL for oral administration at a 5 mg/kg dose. All animals were weighed before dosing. The body weight was used to calculate the actual dose for each animal. The intravenous dose was administered through the jugular vein catheter in less than 1 minute. The oral dose volume was 1.5 mL for all PO rats administered through oral lavage.
For IV dosing, blood samples were collected using a pre-heparinized syringe via the caproic artery catheter before dosing and at t=2, 5, 15, 30, 60, 120, 180, 360, and 480 minutes post dosing. For PO dosing, blood samples were collected using a pre-heparinized syringe via the caproic artery catheter before dosing and at t=5, 15, 30, 60, 120, 180, 360, and 480 minutes post dosing. 250 uL of blood was obtained at each time point from each animal. Equal volumes of 0.9% normal saline were replaced to prevent dehydration. The whole blood samples were maintained on ice until centrifugation. Blood samples were centrifuged at 14,000 rpm for 10 minutes at 4° C., and the upper plasma layer was transferred into a clean vial and store at −80° C.

Row | SMILES | % Inhibition @ 1 μM [2] | also measured
1 | FC(F)(F)c1ccc(Nc2ncnc3c2CCN(c2ncccc2Cl)C3)cc1 [Example 1, 7-(3-Chloropyridin-2-yl)-N-(4-(trifluoromethyl)phenyl)-5,6,7,8-tetrahydropyrido[3,4-d]pyrimidin-4-amine] | – | latency of paw withdrawal (reversal of thermal hyperalgesia) [1]: significantly increased latency of paw withdrawal
2 | CC(C)(C)c1ccc(Nc2ncnc3c2CCN(Cc2ccccc2)C3)cc1 [Example 2, N-(4-tert-Butylphenyl)-7-benzyl-5,6,7,8-tetrahydropyrido[3,4-d]pyrimidin-4-amine] | IA (IA inactive.) | –
3 | FC(F)(F)CCN1CCc2c(ncnc2Nc2ccc3c(c2)OCCO3)C1 [Example 7, (2,3-Dihydro-benzo[1,4]dioxin-6-yl)-[7-(3,3,3-trifluoro-propyl)-5,6,7,8-tetrahydro-pyrido[3,4-d]pyrimidin-4-yl]-amine hydrochloride] | IA (IA inactive.) | –
4 | FC(F)(F)c1ccc(Nc2ncnc3c2CCN(c2ncccc2C(F)(F)F)C3)cc1 [Example 12, (4-Trifluoromethyl-phenyl)-[7-(3-trifluoromethyl-pyridin-2-yl)-5,6,7,8-tetrahydro-pyrido[3,4-d]pyrimidin-4-yl]-amine] | – | IC50 [2]: > 1000 nM
5 | FC(F)Oc1ccc(Nc2ncnc3c2CCN(c2ncccc2Cl)C3)cc1 [Example 15, 7-(3-Chloropyridin-2-yl)-N-(4-(difluoromethoxy)phenyl)-5,6,7,8-tetrahydropyrido[3,4-d]pyrimidin-4-amine] | IA (IA inactive.) | IC50 [2]: > 1000 nM
6 | CC(C)S(=O)(=O)c1cccnc1N1CCc2c(ncnc2Nc2ccc(C(F)(F)F)cc2)C1 [Example 16, N-(4-(Trifluoromethyl)phenyl)-5,6,7,8-tetrahydro-7-(3-(isopropylsulfonyl)pyridin-2-yl)pyrido[3,4-d]pyrimidin-4-amine] | IA (IA inactive.) | –
7 | Clc1cccnc1N1CCc2c(ncnc2Nc2ccccc2)C1 [Example 18, 7-(3-Chloropyridin-2-yl)-5,6,7,8-tetrahydro-N-phenylpyrido[3,4-d]pyrimidin-4-amine] | ++ (“++” compound exhibited 26-50% inhibition of calcium ion influx induced by capsaicin stimulation.) | bioavailability [3]: 4.07%; Vd [3]: 18 L/kg; Cmax [3]: 44.6 ng/mL; Tmax [3]: 55.2 min; Cls (L/hrKg) [3]: 4.45 L/hrKg; T/2 [3]: 2.55 h
8 | Fc1ccc(Nc2ncnc3c2CCN(c2ncccc2Cl)C3)cc1 [Example 19, 7-(3-Chloropyridin-2-yl)-N-(4-fluorophenyl)-5,6,7,8-tetrahydropyrido[3,4-d]pyrimidin-4-amine] | +++ (“+++” compound exhibited 51-75% inhibition of calcium ion influx induced by capsaicin stimulation.) | bioavailability [3]: 5.66%; Vd [3]: 12.2 L/kg; Cmax [3]: 24.5 ng/mL; Tmax [3]: 40.8 min; Cls (L/hrKg) [3]: 4.47 L/hrKg; T/2 [3]: 1.9 h
9 | O=S(=O)(c1ccc(Nc2ncnc3c2CCN(c2ncccc2Cl)C3)cc1)C(F)(F)F [Example 22, 7-(3-Chloropyridin-2-yl)-5,6,7,8-tetrahydro-N-(4-(trifluoromethylsulfonyl)phenyl)pyrido[3,4-d]pyrimidin-4-amine] | IA (IA inactive.) | –
10 | CS(=O)(=O)c1cccnc1N1CCc2c(ncnc2Nc2ccc(S(=O)(=O)C(F)(F)F)cc2)C1 [Example 23, 5,6,7,8-tetrahydro-7-(3-(methylsulfonyl)pyridin-2-yl)-N-(4-(trifluoromethylsulfonyl)phenyl)pyrido[3,4-d]pyrimidin-4-amine] | + (“+” compound exhibited 0-25% inhibition of calcium ion influx induced by capsaicin stimulation.) | –
11 | CS(=O)(=O)c1nc2c(c(Nc3ccc(C(F)(F)F)cc3)n1)CCN(c1ncccc1Cl)C2 [Example 25, [7-(3-Chloro-pyridin-2-yl)-2-methanesulfonyl-5,6,7,8-tetrahydro-pyrido[3,4-d]pyrimidin-4-yl]-(4-trifluoromethyl-phenyl)-amine] | IA (IA inactive.) | –
12 | c1ccc(CN2CCc3c(ncnc3Nc3ccc4c(c3)OCCO4)C2)cc1 [Example 30, (7-Benzyl-5,6,7,8-tetrahydro-pyrido[3,4-d]pyrimidin-4-yl)-(2,3-dihydro-benzo[1,4]dioxin-6-yl)-amine] | IA (IA inactive.) | –
13 | COCc1nc2c(c(Nc3ccc(C(F)(F)F)cc3)n1)CCN(Cc1ccccc1)C2 [Example 31, 7-Benzyl-N-(4-(trifluoromethyl)phenyl)-5,6,7,8-tetrahydro-2-(methoxymethyl)pyrido[3,4-d]pyrimidin-4-amine] | IA (IA inactive.) | –
14 | CN(C)CCNc1nc2c(c(Nc3ccc(C(F)(F)F)cc3)n1)CCN(c1ncccc1Cl)C2 [Example 32, 7-(3-Chloropyridin-2-yl)-N^2-(2-(dimethylamino)ethyl)-N^4-(4-(trifluoromethyl)phenyl)-5,6,7,8-tetrahydropyrido[3,4-d]pyrimidine-2,4-diamine] | IA (IA inactive.) | –
15 | Cc1cccc(N2CCc3c(ncnc3Nc3ccc4c(c3)OCCO4)C2)c1 [Example 36, 5,6,7,8-Tetrahydro-N-(2,3-dihydrobenzo[b][1,4]dioxin-6-yl)-7-m-tolylpyrido[3,4-d]pyrimidin-4-amine] | – | IC50 [2]: 501 to 1000 nM
16 | c1ccc(CN2CCc3c(ncnc3Nc3cnc4ccccc4c3)C2)cc1 [Example 38, 7-Benzyl-5,6,7,8-tetrahydro-N-(quinolin-3-yl)pyrido[3,4-d]pyrimidin-4-amine] | IA (IA inactive.) | –
17 | FC(F)(F)c1cccc(Nc2ncnc3c2CCN(c2ncccc2Cl)C3)c1 [Example 43, 7-(3-Chloropyridin-2-yl)-N-(3-(trifluoromethyl)phenyl)-5,6,7,8-tetrahydropyrido[3,4-d]pyrimidin-4-amine] | IA (IA inactive.) | –
18 | FC(F)(F)c1ccc(Nc2ncnc3c2CCN(c2ccccc2)C3)cc1 [Example 44, N-(4-(Trifluoromethyl)phenyl)-5,6,7,8-tetrahydro-7-phenylpyrido[3,4-d]pyrimidin-4-amine] | IA (IA inactive.) | –
19 | Cc1ccccc1N1CCc2c(ncnc2Nc2ccc(C(F)(F)F)cc2)C1 [Example 45, N-(4-(Trifluoromethyl)phenyl)-5,6,7,8-tetrahydro-7-o-tolylpyrido[3,4-d]pyrimidin-4-amine] | IA (IA inactive.) | –
20 | Cc1ccc(N2CCc3c(ncnc3Nc3ccc(C(F)(F)F)cc3)C2)cc1 [Example 47, N-(4-(Trifluoromethyl)phenyl)-5,6,7,8-tetrahydro-7-p-tolylpyrido[3,4-d]pyrimidin-4-amine] | IA (IA inactive.) | –
